Reference: article PMC3269340, “Pharmacokinetics of memantine in rats and mice” (PLoS Currents, 2012)
Like-named read-outs stand apart in the source and are kept apart here.

Experiment: Pharmacokinetics in rats after single iv, po or sc dose (plasma and brain)
Type: in vivo, Sprague-Dawley rats
Conditions: male, Sprague-Dawley; for Kp: brain/plasma, read-out: Ratio of Brain-to-Plasma AUC(0-∞); for Vd: read-out: Volume of Distribution at Steady State (Vdss); for bioavailability: read-out: Bioavailability (F); for AUC(0-inf): read-out: AUC(0-∞); for Cmax: read-out: Observed Cmax
Procedure: Sprague Dawley (SD) rats (138 adult males), and C57Bl/6 mice (140 adult males), were obtained (Hilltop Laboratories, Scottsdale, PA); 123 per species were used in the study and the remainder provided blank matrix. Animals were individually identified by tail markings and were acclimated to the study environment for 16-21 days prior to dose administration. Animals were individually housed in suspended wire caging, and were kept on a 12h/12h light/dark cycle except when interrupted for study procedures. Average room temperature was regulated in the range 18 to 29°C, average relative humidity of 30-70%, and an average daily airflow >10 fresh air changes/h. Animals were fed LabDiet^Ò Certified Rodent Diet 5002 Meal food ad libitum, except during fasting prior to dose administration, and had access to water ad libitum.
[…] […] The concentration of memantine for the same dose level administered to mice was 0.2 mg eq./mL, and the dose volume was 5 mL/kg. The concentration of memantine in the 10mg eq./kg po and sc solutions was 5 mg eq./mL and the dose volume was 2 mL/kg for both rats and mice.
Details of the dose administration, body weights, clinical observations, plasma and brain sample collection and preparation are not shown in this report but are available upon request. Blood (for preparation of plasma) and brain samples were collected at 0.08, 0.25, 0.5, 1, 2, 4, 8, and 24h post-dose.
Since all time points were terminal, mean memantine concentrations per time point were used to calculate the composite PK parameters by non-compartmental analysis using WinNonlin program, version 5.2 (Pharsight Corp., Mountain View, California). A model was selected based on the vascular (iv bolus) or extravascular (po or sc) routes of administration. For the iv route, plasma concentration at time zero was back extrapolated from the first two observed post dose plasma concentrations. For the po and sc routes, concentration at time zero was assumed to be zero. Plasma and tissue concentrations below the limit of quantitation were treated as absent samples for the purpose of calculating the mean plasma concentration values or for calculating PK parameters.
The area under the plasma concentration versus time curve (AUC) was calculated using the linear trapezoidal method (linear interpolation). When appropriate, the terminal elimination phase of the PK profile was estimated based on the best fit (r^2) using at least the last three observed concentrations. PK parameters describing the systemic exposure of memantine in plasma and brain were estimated from observed (rather than predicted) plasma/brain concentrations, the dosing regimen, the AUC, and the terminal elimination phase rate constant (kel) for each group. The portion of the AUC from the last measurable concentration to infinity was estimated from the equation Ct/kel, where Ct represents the last measurable concentration. The extrapolated portion of the AUC was used for the determination of AUC0-∞. The percent bioavailability (%F) was calculated by dividing the dose normalized extravascular plasma AUC0-∞ by the dose normalized iv plasma AUC0-∞ times 100. The bioavailability calculations assumed concentrations were in the linear range.
Concentrations of memantine in rat and mouse plasma and brain were determined using an LC-MS/MS assay developed at ABC Laboratories.

[1] = rat, brain, iv, 1.22 mg/kg, rat brain, IV 1.22 mg eq./kg
[2] = rat, brain, po, 1.22 mg/kg, rat brain, PO 1.22 mg eq./kg
[3] = rat, brain, po, 10 mg/kg, rat brain, PO 10.0 mg eq./kg
[4] = rat, brain, sc, 1 mg/kg, rat brain, SC 1.0 mg eq./kg
[5] = rat, brain, sc, 10 mg/kg, rat brain, SC 10.0 mg eq./kg

CC12CC3CC(C)(C1)CC(N)(C3)C2 [memantine]
AUC(0-t) (1 mg/kg, rat brain, SC 1.0 mg eq./kg): 48 µM·h | Tmax (1 mg/kg, rat brain, SC 1.0 mg eq./kg, read-out: Observed Tmax): 0.5 h | AUC(0-t) (1 mg/kg, rat plasma, SC 1.0 mg eq./kg): 1.62 µM·h | Tmax (1 mg/kg, rat plasma, SC 1.0 mg eq./kg, read-out: Observed Tmax): 0.25 h | AUC(0-t) (1.22 mg/kg, rat brain, IV 1.22 mg eq./kg): 43 µM·h | Tmax (1.22 mg/kg, rat brain, IV 1.22 mg eq./kg, read-out: Observed Tmax): 0.5 h | AUC(0-t) (1.22 mg/kg, rat brain, PO 1.22 mg eq./kg): 13.1 µM·h | Tmax (1.22 mg/kg, rat brain, PO 1.22 mg eq./kg, read-out: Observed Tmax): 2 h | AUC(0-t) (1.22 mg/kg, rat plasma, IV 1.22 mg eq./kg): 1.57 µM·h | MRT inf (1.22 mg/kg, rat plasma, IV 1.22 mg eq./kg, read-out: Mean Residency Time (MRT0-∞)): 2.08 h | AUC(0-t) (1.22 mg/kg, rat plasma, PO 1.22 mg eq./kg): 0.541 µM·h | Tmax (1.22 mg/kg, rat plasma, PO 1.22 mg eq./kg, read-out: Observed Tmax): 1 h | AUC(0-t) (10 mg/kg, rat brain, PO 10.0 mg eq./kg): 254 µM·h | Tmax (10 mg/kg, rat brain, PO 10.0 mg eq./kg, read-out: Observed Tmax): 2 h | AUC(0-t) (10 mg/kg, rat brain, SC 10.0 mg eq./kg): 441 µM·h | Tmax (10 mg/kg, rat brain, SC 10.0 mg eq./kg, read-out: Observed Tmax): 1 h | AUC(0-t) (10 mg/kg, rat plasma, PO 10.0 mg eq./kg): 11.2 µM·h | Tmax (10 mg/kg, rat plasma, PO 10.0 mg eq./kg, read-out: Observed Tmax): 0.5 h | AUC(0-t) (10 mg/kg, rat plasma, SC 10.0 mg eq./kg): 25.8 µM·h | Tmax (10 mg/kg, rat plasma, SC 10.0 mg eq./kg, read-out: Observed Tmax): 0.5 h | Kp (rat, IV 1.22 mg eq./kg): 29.1 | Kp (rat, PO 1.22 mg eq./kg): 35.6 | Kp (rat, PO 10.0 mg eq./kg): 22.5 | Kp (rat, SC 1.0 mg eq./kg): 31.4 | Kp (rat, SC 10.0 mg eq./kg): 17.1 | clearance (plasma, 1.22 mg/kg, rat, IV 1.22 mg eq./kg, read-out: Plasma Clearance (CLp) (converted)): 69.2 mL/min/kg | Vd (plasma, 1.22 mg/kg, rat, IV 1.22 mg eq./kg): 8.62 L/kg | bioavailability (plasma, 1.22 mg/kg, rat, PO 1.22 mg eq./kg): 36.3% | bioavailability (plasma, 10 mg/kg, rat, PO 10.0 mg eq./kg): 84.9% | concentration at 24 h (plasma, oral, rat, dose 10 mg/kg, single dose in solution, read-out: C min): 0.03 µM | Tmax (plasma, po, rat, dose 1 mg/kg, cross-species summary, read-out: T max): 1 h | Vd (plasma, rat, IV 1.22 mg eq./kg): 8 to 9 L/kg | bioavailability (plasma, rat, PO 1.22 mg eq./kg): 36% | Tmax (plasma, rat, dose 10 mg/kg, cross-species summary, read-out: T max): 0.5 to 1 h | AUC(0-inf) [1]: 47.6 µM·h | half-life (rat, brain, iv, 1.22 mg/kg, rat brain, IV 1.22 mg eq./kg, read-out: Half-life (t½) (converted)): 2.28 h | Cmax [1]: 11 µM | half-life (rat, brain, oral, subcutaneous, summary for rats and mice, rat, read-out: brain elimination half-lives after extravascular administrations): 2.3 to 3.8 h | half-life (rat, brain, po, 1.22 mg/kg, rat brain, PO 1.22 mg eq./kg, estimated using the LOQ for the 24 hr concentration, large imprecision, read-out: Half-life (t½) (converted)): < 2.54 h | AUC(0-inf) [2]: 21.1 µM·h | Cmax [2]: 2.17 µM | AUC(0-inf) [3]: 256 µM·h | half-life (rat, brain, po, 10 mg/kg, rat brain, PO 10.0 mg eq./kg, read-out: Half-life (t½) (converted)): 3.7 h | Cmax [3]: 25.4 µM | AUC(0-inf) [4]: 53 µM·h | half-life (rat, brain, sc, 1 mg/kg, rat brain, SC 1.0 mg eq./kg, read-out: Half-life (t½) (converted)): 2.51 h | Cmax [4]: 10.6 µM | AUC(0-inf) [5]: 442 µM·h | half-life (rat, brain, sc, 10 mg/kg, rat brain, SC 10.0 mg eq./kg, read-out: Half-life (t½) (converted)): 2.65 h | Cmax [5]: 75.4 µM | half-life (rat, plasma, intravenous, oral, subcutaneous, rat, all dose routes and levels (plasma; b142 also brain), read-out: elimination half-life): 3 to 4 h
